40 compounds from PubChem BioAssay AID977619 (Broad Institute, 2014) can be followed below.

Several values for one entry are separate records, joined by “and”; a condition that tells them apart may be missing. Equal values may be shown once. Activity calls are given as the source filed them.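 The calls were made as follows: active = viability signal falls, with AC50 at or below a set limit tied to the top tested dose; inconclusive = flat curve with moderate signal loss, or poor fit; inactive = the rest, including rising signal.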

Tested on in one test: not listed separately
The test is described as follows: HepG2 cell cytotoxicity, dose response, cytotoxicity control, CellTiter-Glo luminescence, dry powder, set 13 (AID 977619). As to conditions: HepG2 viability, CellTiter-Glo ATP luminescence, 72 h; at 30 µM (top of the series). Background: Cellular ATP, detected with luciferase, serves as a proxy for viable cell number.
On to `Cc1cnc(NC(=O)c2cc(S(=O)(=O)N(C)C)ccc2N2CCCC2)s1`, for which the activity change, negative = cytotoxicity was -11% (inactive) and -24.4% (inactive). Regarding `CN(C)S(=O)(=O)c1ccc(N2CCCC2)c(C(=O)Nc2ccncc2)c1`, the activity change, negative = cytotoxicity is -16.4% (inactive). On the same count and under the same terms, with `Cc1cnc(NC(=O)c2cc(S(=O)(=O)N(C)C)ccc2C2CCCC2)s1` the figure was 1.56% (inactive); with `Cc1nnc(NC(=O)c2cc(S(=O)(=O)N(C)C)ccc2N2CCCC2)s1`, -4.85% (inactive); with `CCN(CC)S(=O)(=O)c1ccc(N2CCCC2)c(C(=O)Nc2ncc(C)s2)c1`, -6.49% (inactive). Turning to `CN(C)S(=O)(=O)c1ccc(N2CCCC2)c(C(=O)Nc2ccc(Br)cc2)c1`, the activity change, negative = cytotoxicity was 3.71% (inactive). Turning to `Cc1cnc(NC(=O)c2cc(S(=O)(=O)N3CCOCC3)ccc2N2CCCC2)s1`, the activity change, negative = cytotoxicity is -27.5% (inactive). Still for that read-out and setting: with `Cc1cnc(NC(=O)c2cc(S(=O)(=O)N(C)C)ccc2N2CCNCC2)s1` the figure was 2.09% (inactive); with `Cc1nc(NC(=O)c2cc(S(=O)(=O)N(C)C)ccc2N2CCCC2)n[nH]1`, 7.89% (inactive); with `Cc1cnc(NC(=O)c2cc(S(=O)(=O)N(C)C)ccc2N2CCCCC2)s1`, -24.5% (inactive). In the case of `CN(C)S(=O)(=O)c1ccc(N2CCCC2)c(C(=O)Nc2nccs2)c1`, the activity change, negative = cytotoxicity is -14.2% (inactive). Same read-out and setting: with `COc1cccc2sc(NC(=O)c3cc(S(=O)(=O)N(C)C)ccc3N3CCCC3)nc12` the figure was -0.843% (inactive). Same read-out and setting: to `Cc1ccccc1NC(=O)c1cc(S(=O)(=O)N(C)C)ccc1N1CCCC1` belongs -8.5% (inactive). The same measure, in the same setting: with `Cc1cnc(NC(=O)c2cc(S(=O)(=O)N(C)C)ccc2N(C)C)s1` the figure was -8.52% (inactive). With `Cc1cnc(NC(=O)c2cccc(S(=O)(=O)N(C)C)c2)s1`, the activity change, negative = cytotoxicity is 0.262% (inactive).

As for `CN(C)S(=O)(=O)c1ccc(N2CCCC2)c(C(=O)Nc2ccccc2Cl)c1`, the activity change, negative = cytotoxicity is 0.028% (inactive). Still for that read-out and setting: with `CN(C)S(=O)(=O)c1ccc(N2CCCC2)c(C(=O)Nc2nc3ccccc3s2)c1` the figure was -28% (inactive). Same read-out and setting: to `Cc1ccc(NC(=O)c2cc(S(=O)(=O)N(C)C)ccc2N2CCCC2)cc1` belongs -24% (inactive); to `CN(C)CCCN(Cc1cc2ccccc2[nH]c1=O)C(=O)NCc1ccccc1`, -20.2% (inactive); to `COc1ccccc1NC(=O)c1cc(S(=O)(=O)N(C)C)ccc1N1CCCC1`, -1.12% (inactive). Take `Cc1cnc(NC(=O)c2cc(S(=O)(=O)N3CCNCC3)ccc2N2CCCC2)s1`: the activity change, negative = cytotoxicity was -16.2% (inactive).

Consider `COc1ccc(NC(=O)c2cc(S(=O)(=O)N(C)C)ccc2N2CCCC2)cc1`, for which the activity change, negative = cytotoxicity is -5.62% (inactive). The same measure, in the same setting: with `COc1ccc2nc(NC(=O)c3cc(S(=O)(=O)N(C)C)ccc3N3CCCC3)sc2c1` the figure was -15% (inactive); with `Cc1cnc(NC(=O)c2cc(S(=O)(=O)N(CC(C)C)CC(C)C)ccc2N2CCCC2)s1`, 2.42% (inactive).

In the case of `CN(C)C(=O)c1cc(S(=O)(=O)N(C)C)ccc1N1CCCC1`, the activity change, negative = cytotoxicity is -5.71% (inactive). `CN(C)S(=O)(=O)c1ccc(N2CCCC2)c(C(=O)NC2CCCCC2)c1`: the activity change, negative = cytotoxicity is -17.5% (inactive).

Consider `CN(C)CCCN(Cc1cc2ccccc2[nH]c1=O)C(=O)Nc1ccccc1`, for which the activity change, negative = cytotoxicity is -20.2% (inactive). The same measure, in the same setting: with `CN(C)S(=O)(=O)c1ccc(N2CCCC2)c(C(=O)Nc2cccc(F)c2)c1` the figure was -10% (inactive); with `CN(C)S(=O)(=O)c1ccc(N2CCCC2)c(C(=O)Nc2ccccc2F)c1`, 0.657% (inactive).

`CN(C)S(=O)(=O)c1ccc(N2CCCC2)c(C(=O)Nc2cccnc2)c1`: the activity change, negative = cytotoxicity was -8.96% (inactive). As for `Cc1cnc(NC(=O)c2cc(S(=O)(=O)N(C)c3ccccc3)ccc2N2CCCC2)s1`, the activity change, negative = cytotoxicity was 2.13% (inactive).

Regarding `COc1ccc2sc(NC(=O)c3cc(S(=O)(=O)N(C)C)ccc3N3CCCC3)nc2c1`, the activity change, negative = cytotoxicity is 12.7% (inactive). Take `Cc1cnc(NC(=O)c2cc(S(=O)(=O)N3CCCCC3)ccc2N2CCCC2)s1`: the activity change, negative = cytotoxicity is -1.49% (inactive). Consider `Cc1cnc(NC(=O)c2cc(S(=O)(=O)N(C)C)ccc2N2CCC2)s1`, for which the activity change, negative = cytotoxicity is -16.2% (inactive). In the case of `CCN(CC)c1ccc(S(=O)(=O)N(C)C)cc1C(=O)Nc1ncc(C)s1`, the activity change, negative = cytotoxicity is -14.5% (inactive). With `Cc1cnc(NC(=O)c2cc(S(=O)(=O)NCc3ccccc3)ccc2N2CCCC2)s1`, the activity change, negative = cytotoxicity was -8.91% (inactive).

Consider `CN(C)S(=O)(=O)c1ccc(N2CCCC2)c(C(=O)Nc2ccccc2)c1`, for which the activity change, negative = cytotoxicity was -16.8% (inactive). With `CN(C)S(=O)(=O)c1ccc(N2CCCC2)c(C(=O)N2CCOCC2)c1`, the activity change, negative = cytotoxicity was -23.2% (inactive).

A further test relates to HepG2 viability, CellTiter-Glo ATP luminescence, 72 h. The test is described as above.
Settings: not given
Take `Cc1csc(NC(=O)c2cc(S(=O)(=O)N(C)C)ccc2N2CCCC2)n1`: the AC50 was > 60 µM (inactive). For the compound `Cc1cnc(NC(=O)c2cc(S(=O)(=O)N3CCCC3)ccc2N2CCCC2)s1`, the AC50 was > 60 µM (inactive).

As a reminder, the AC50 is the concentration at which the activity in the assay is half-maximal.
